The term pIC50 denotes the negative decadic logarithm of the IC50, by convention in mol/L.

pIC50: −log10 of the molar value.

The results in this text go back to US10953099B2, “Compositions comprising a metal source, dithiocarbamate and cyclodextrin” (priority 2016, dated 2021).

Experiment [1] relates to Raji human B-cell lymphoma cells. Nature of the experiment: Cell-titer-blue viability, Raji. Format: cell-based. The note with it: in presence of sulfobutyl ether-β-cyclodextrin, 72 h. On the procedure:
(§1) The anti-tumoral efficacy of a panel of 7 different Au complexes, ATM/Disulfiram, the standard therapeutic Cisplatin and well known antitumoral CuDTC (see Table 2) was tested on Jurkat human T-cell leukemia and Raji human B-cell lymphoma cells. […] 24 h later, test compound were added in the presence of sulfobutyl ether-β-cyclodextrin (30 fold disulfiram concentration) in various dilutions (100-0.01 μM). All concentrations were applied in triplicate. […] The “Factor of Selectivity for T-cell Leukemia” was calculated by division of IC50 on Raji cells/IC50 on Jurkat cells.

Experiment [2] deals with Jurkat human T-cell leukemia cells. Nature of the experiment: Cell-titer-blue viability, Jurkat. Format: cell-based. Particulars: for selectivity for Jurkat IC50 Raji/IC50 Jurkat (Factor of Selectivity for T-cell Leukemia): IC50 on Raji cells/IC50 on Jurkat cells; for pIC50: in presence of sulfobutyl ether-β-cyclodextrin, 72 h. The method, then: as §1
Another experiment deals with H209 SCLC cells. The experiment in a line: H209 SCLC tumor relapse model in mice. The experiment is classed as in vivo, nu/nu mice. Particulars: after 6 weeks DKFZ-00608 15 mg/kg daily in 60 mM sulfobutyl ether beta-cyclodextrin. The method, then: The inventors wanted to compare the efficacy of DKFZ-00608 on human SCLC tumors with standard therapy in vivo. […] Followed by DKFZ-00608 in 60 mM sulfobutyl ether beta-cyclodextrin (15 mg/kg daily) for 6 weeks • DKFZ-00608 in 60 mM sulfobutyl ether beta-cyclodextrin (15 mg/kg daily) for 6 weeks. Tumor sizes were determined 2× per week for the first 9 weeks, thereafter, once per week.

Regarding `N.N.[Cl][Pt][Cl]` [Cisplatin], the pIC50 was 5.57 in experiment [1] and 6.21 in experiment [2]. In addition, in experiment [2], the “selectivity for Jurkat IC50 Raji/IC50 Jurkat (Factor of Selectivity for T-cell Leukemia)” value came out at 4.45.
For `CCN(CC)C(=S)[S-].CCN(CC)C(=S)[S-].[Cu+2]` [CuDTC] the same measures were 7.70, 8.00 and 2.62.
On to `CCN(CC)/C1=[SH]/[Au][S]/C(N(CC)CC)=[SH]\[Au][S]1` [DKFZ-00608], for which the “animals with no palpable tumors” value in the experiment with H209 SCLC cells is 6 out of 10.
